Results published in US20260007746A1, “COMPOSITIONS AND METHODS FOR TREATMENT OF INFLAMMATORY DISORDERS” (priority 2020, published 2026).

Test system: ConA-stimulated splenocytes
Assay: Mitogen proliferative assay (MSC:splenocyte co-culture, BrdU)
Assay type: cell-based, mouse
Settings: mAdMSC:splenocyte 1:20 and 1:10; with or without HA or E-selectin pre-incubation
Procedure: Mitogen proliferative assays were performed as described previously (Yañez et al., 2006; Yanez et al., 2010). Briefly, splenocytes were isolated from C57BL/6 and BALB/c mice spleen cell suspensions by passage through 40-μm nylon cell strainers (Becton Dickinson), followed by red blood lysis with 0.83% ammonium chloride in 0.01 M Tris-HCl buffer pH 7.5 (Sigma-Aldrich). To induce splenocyte proliferation, 1×10^5 splenocytes were resuspended in RPMI 1640 medium (Gibco, Carlsbad, CA, United States) supplemented with 10% FBS (proliferation medium) and treated with 10 μg/ml concanavalin A (ConA) (Sigma-Aldrich). To assess for effect(s) on splenocyte proliferation, MSCs were resuspended in complete medium and seeded in wells together with splenocytes at decreasing ratios of MSC:splenocyte (from 1:1 to 1:100). After 3 days of MSC:splenocyte co-cultures, splenocyte proliferation was measured using an ELISA BrdU colorimetric kit (Roche Diagnostics). In brief, BrdU labeling reagent was added to wells 16 h before determination. Then, cells were fixed, DNA denatured and incubated with an anti-BrdU-POD antibody. After washing and substrate addition, absorbance was measured. In some experiments, UmAdMSCs and FucmAdMSCs, or FuchAdMSCs and FuchBMMSCs, were treated with sialidase from Vibrio cholerae (0.1 U/ml, Roche Diagnostics) to remove terminal sialic acids (i.e., sialUmAdMSCs and sialFucmAdMSCs, or sialFuchAdMSCs and sialFuchBMMSCs). As indicated, mMSCs or hMSCs were cultured for 24 h or 72 h with different concentrations of mE-Ig chimera or of hyaluronic acid (HA, from rooster comb; Sigma-Aldrich) for 24 h or 72 h following described protocols (Burdick et al., 2006; Thankamony and Sackstein, 2011). Briefly, mE-Ig or HA were immobilized on plates. […] In some experiments, cultures of mAdMSCs seeded on E-selectin and/or HA for 72 h were washed, then co-cultured in presence of continuous E-selectin and/or HA with murine splenocytes (at MSC:splenocyte ratio of 1:20) for 72 h in presence of ConA, and splenocyte proliferation was assessed. […]

Row | Compound | proliferation of mitogen-stimulated splenocytes in mAdMSC co-cultures with inhibitor
1 | CNC(=N)NCCC[C@H](N)C(=O)O [N^G-monomethyl-L-arginine] | significantly rescued the proliferation
2 | Cn1cc(CC(N)C(=O)O)c2ccccc21 (racemic) [1-methyl-DL-tryptophan] | significantly rescued the proliferation
3 | NC(=O)c1ccc(-c2nc(-c3ccc4c(c3)OCO4)c(-c3ccccn3)[nH]2)cc1 [SB-431542] | significantly rescued the proliferation
